The values that follow come from a melting point compilation (Tetko et al.; mined from patent text by program, amines drawn as free bases though some values may be those of a salt).

Structures are written as SMILES. Bounds are passed on as bounds.

One may read the melting point as the temperature, or range, at which the solid turns liquid. In turn, `Cc1cc(N)cc(C)c1Oc1ccc(O)c(C(=O)c2ccc(F)cc2)c1` yielded a melting point of 198 to 202 °C.
In turn, `CCc1cn(C2CC(O)C(CNC(=O)C(C)Cc3c(Cl)cccc3Cl)O2)c(=O)[nH]c1=O` (mixture of isomers) gave a melting point of 194 to 197 °C.
To `Cc1cc(-c2ccc(C(F)(F)F)cc2)cnc1N` belongs 74 °C; to `CCCN(CCC)c1nc2ccccc2n2cnnc12`, 240 to 242 °C.
In the case of `O=C(C(=O)c1cccc(OCCCN2CCCC2)c1)c1cccc(OCCCN2CCCC2)c1` it was 136 to 139 °C; in that of `O=C(c1ccc(Cl)cc1)n1c2c(c3ccccc31)CC(C(=O)O)(C(=O)O)CC2`, 210 to 212 °C; in that of `CCCCCCCCCCCCCCCNC(=O)OCCOCCOC(=O)NCc1ccccn1`, 86 to 87 °C.
In the case of `COc1cc(C2CCN(C(=O)C3CCN3)CC2)ccc1Nc1ncc2ccc(-c3ccccc3N(C)S(C)(=O)=O)n2n1` (centres undefined) it was 111 to 116 °C; in that of `CCOC(=O)C(=CNc1ccc(OC)c(C)n1)C(=O)OCC`, 109 to 110 °C; in that of `CCOC(=O)C=CC1C(C(=O)O)C1(C)C` (centres undefined), 96 °C.
Compound `COc1ccc(C(=O)N(C)Cc2cccc(-c3ccc(CC4SC(=O)NC4=O)cc3)c2)cc1` (centres undefined) came in with a melting point of 170 °C.
Take `COCOc1ccc(-c2ccc3c(c2)C=C(C(=O)Nc2ccc(CN(C)C4CCOCC4)cc2)CCS3(=O)=O)cc1`: the melting point lay in the range of 227 to 229 °C.
In the case of `C=CCONC(=O)COc1cccc2c1c(C(=O)C(N)=O)c(CC)n2Cc1ccccc1` it was 175 to 177 °C; in that of `O=c1c(Br)cn(-c2cccc(C(F)(F)F)c2)nc1-c1ccnn1-c1ccccc1`, 145 to 146 °C.
To `CCOC(=O)c1[nH]cc2c1NC1=C(C(=O)CNC1)C2c1ccc(Sc2nc3ccc(OC)cc3[nH]2)o1` (centres undefined) belongs 248 °C; to `C=CS(=O)(=O)C=CSc1ccc(C(C)(C)C)cc1`, 62 to 64 °C; to `N#Cc1ccc(C(Cc2ccc(OC(F)(F)F)cc2)Cn2cncn2)cc1` (centres undefined), 70 °C.
In the case of `Cc1cccc(Cn2c(NC3CCN(CCO)CC3)nc3cccnc32)n1` it was 152 °C; in that of `CC(C)(C)OC(=O)N1C(=O)O[C@@H](c2cccc(Cl)c2)[C@H]1Cc1ccc(CC(F)(F)C(F)(F)F)cc1` (racemic), 136 to 138 °C.
For the compound `COc1ccc2c(c1)CCc1c(cccc1C(=O)O)S2`, the melting point was in the range of 185 to 187 °C.
To `COc1ccc2cnc(Nc3ccccc3)nc2c1C1CCCC1` belongs 187 to 188 °C.
As for `CC1(C)CC(NC(=O)Nc2ccccc2)CC(C)(C)N1CC#N`, the melting point lay in the range of 218 to 220 °C.
To `CCn1c2ccc(C(=O)CCCCCl)cc2c2cc(C(=O)CCCCCl)ccc21` belongs 94 to 95 °C; to `CC[C@@H](Cc1ccc(OC)c(C(=O)NCc2ccccc2Oc2ccc(F)cc2)c1)C(=O)O`, 95 to 96 °C; to `CCOC(=O)c1cc(=O)cc(-c2ccccc2Cl)o1`, 104 to 106 °C.
In the case of `CCc1n[nH]c(CC)c1CCCCCCOc1ccccc1` it was 119 to 121 °C; in that of `O=C1C=CCCC=CCCC=CCCC=C1`, 30 to 37 °C.
In the case of `CC(C)S(=O)(=O)c1ccc2[nH]nc(Nc3nccs3)c2c1` it was 146 to 148 °C; in that of `CCCCCCOc1ccc2[nH]c(SC(C)(C(=O)O)c3ccccc3)cc2c1` (centres undefined), 100 to 102 °C.
As to `COc1ccc2c(n1)C1(CO2)C(=O)N(CC(=O)Nc2ccccc2F)c2ccccc21` (centres undefined), the melting point is more than 170 °C.
For `Cc1cccc(-c2nc(N)ncc2-c2ccc(=O)n(C(C)C)n2)c1`, the melting point is 198 °C.
To `COC(=O)CCCCCCCCCC1=C(C)C(=O)C(OC)=C(OC)C1=O` belongs 37 to 38 °C; to `CC(C)n1cnc2c(Nc3cccc(F)c3)nc(NCCO)nc21`, 142 °C; to `CCOC(=O)CNC(=O)CCl`, 60 to 62 °C.
In the case of `CN(O)C(=O)CCc1ccc2c(c1)Cc1ccccc1CO2`, the melting point lay within 120 to 122 °C.
In the case of `CC1COc2c(OC3CCN(C)CC3)c(F)cc3c(=O)c(C(=O)O)cn1c23` (centres undefined) it was 234 to 238 °C.
To `CC(=O)OC1C(CO)OC(c2ccc(Cl)c(Cc3ccc(-c4ccccc4)s3)c2)C(OC(C)=O)C1OC(C)=O` (centres undefined) belongs 166 to 168 °C.
`CCC(CC)n1nc2c(C(F)(F)F)cccc2c1-c1ccc(OC)cc1OC`: the melting point was 138 to 139 °C.
In the case of `CC(=O)N(O)C(C)/C=C/c1cccc(Oc2ccc(Cl)cc2)c1` (centres undefined) it was 86 to 87 °C.
Turning to `O=C1c2cc(OCCCl)ccc2-c2ccc(OCCCl)cc21`, the melting point lay in the range of 135 to 139 °C.
Consider `CCOC(=O)c1ccc(-c2cn3cc(C)ccc3n2)cc1`, for which the melting point was 228 to 230 °C.
Compound `O=C(OCC1CC1)c1ncn2c1[C@@H]1CCCN1C(=O)c1c(Br)cccc1-2` yielded a melting point of 135 to 136 °C.
For the compound `CN1CCN(C(=NS(=O)(=O)c2ccc(F)cc2)N2CC(c3ccccc3)C(c3cccnc3)=N2)CC1` (centres undefined), the melting point lay within 169 to 170 °C.
In the case of `CC(C)(C)OC(=O)NCC(=O)SCC(Cc1ccccc1)C(=O)Nc1cccc(C(=O)O)c1` (centres undefined) it was 76 to 80 °C; in that of `COCc1ccn2nc(SCc3ccccc3)nc2n1`, 92 °C.
In turn, `O=C(O)CCCc1cc2nc(Cl)ccc2n1S(=O)(=O)c1ccc(-n2cccn2)cc1` registered a melting point of 196 to 207 °C.
In the case of `NC(CCO)C1(c2ccc(Cl)cc2)CCC1` (centres undefined) it was 98 to 99 °C.
In the case of `CCOC(=O)c1c(C(F)(F)F)nc(C(F)F)c(C(=O)OC)c1-n1cccn1` it was 42 to 52 °C; in that of `CN1C(=O)C(Br)(Br)CC1c1cncc(Br)c1` (centres undefined), 139 to 140 °C; in that of `CCOC(=O)C(NC(=O)OC(C)(C)C)=C1CSCSC1`, 154 °C.
The compound `OCC(O)CN1CCN(c2nccs2)CC1` (centres undefined) had a melting point of 138 to 139 °C.
In the case of `COc1ccc(N2C(=O)C3=C(CCCC3)C2CC(=O)O)cc1` (centres undefined) it was 203 to 204 °C; in that of `CC(C)(C)C(O)C1C(C(=O)O)C1(C)C` (centres undefined), 129 °C.
In the case of `CN1Cc2cncn2-c2ccccc2C1=O` it was 212 to 213 °C; in that of `CCOc1cc(C)nc2nc(S(=O)(=O)Nc3c(Cl)ccc(C)c3Cl)nn12`, 228 to 229 °C.
To `CN(C)C1(Cc2ccccc2)CC=C(c2c[nH]c3ncccc23)CC1` (centres undefined) belongs 222 to 225 °C; to `COC(=O)c1cc(Br)c(O)c(C(C)=O)c1`, 106 to 108 °C.
Consider `CCOC(=O)c1noc(-c2ccc([N+](=O)[O-])cc2)n1`, for which the melting point is 75 to 77 °C.
As to `COc1cc(-c2nc(N)sc2SCC2CCCCC2)c(OC)cc1C`, the melting point was 111 to 112 °C.
To `CCCCC1COC(=S)N1` (centres undefined) belongs 71 to 72 °C.
In the case of `COc1ccc2nccc(CCNC(C)=O)c2c1` it was 113 to 115 °C.
The compound `COC(=O)c1cc(O)cc(O[C@@H](C)CO)c1` registered a melting point of 133 °C.
In the case of `COc1cccc(NC(=O)N[C@H]2C[C@H](C(=O)O)Nc3cc(Cl)cc(Cl)c32)c1` (relative stereo) it was 181 to 183 °C; in that of `CCNC(=O)c1c(Cl)cc(C(C)(C)C)cc1[Si](C)(C)C`, 124 to 126 °C; in that of `c1ccc2c(c1)nc(-c1ccc3c(c1)OCO3)n2CC1CCCCC1`, 100 to 102 °C.
To `Cc1c(C(C)F)nc[nH]c1=O` (centres undefined) belongs 108 to 109 °C; to `CCCCCCCCCCCCOC(=O)c1cc(C(C)(C)C)c(OC(=O)c2cc(C(C)(C)C)c(O)c(C(C)(C)C)c2)c(C(C)(C)C)c1`, 53 to 56 °C.
In the case of `O=C(NCCN1CCN(C(c2ccc(F)cc2)c2ccccn2)CC1)C1CSC(c2cccnc2)N1` (centres undefined) it was 144 to 146 °C; in that of `CCCC(NOCC)=C1C(=O)CC(c2cc3ccccc3s2)CC1=O` (centres undefined), 73 to 76 °C; in that of `CCOC(=O)CSc1nc(=O)[nH]cc1F`, 156 °C.
`O=C(CC1C(=S)Nc2ccccc21)NCc1ccccc1` (centres undefined) displayed a melting point of 193 to 195 °C.
In the case of `CC1=NOC(c2c(S(C)(=O)=O)ccc(C(=O)c3cnn(C4CC4)c3O)c2Cl)C1` (centres undefined) it was more than 220 °C; in that of `COc1cc2cn(N3C(C)CCCC3C)nc2cc1OC` (centres undefined), 162 to 163 °C.
In the case of `Cc1cccc(-c2nc(C3CCN(C)CC3)sc2-c2ccnc(NC(=O)c3ccccc3)c2)c1` it was 151 to 152 °C; in that of `C=CC(CC(O)C(CC(C)C)NC(=O)C(Cc1c[nH]cn1)NC(=O)C(Cc1ccccc1)Cc1ccccc1)C(C)C` (centres undefined), 120 °C; in that of `Cc1oc(-c2ccccc2)nc1CCOc1ccc(CCC2OC(=O)NC2=O)cc1` (centres undefined), 193 to 194 °C.
In the case of `CCCCCCCCCCOc1ccc(C(=O)O)cc1C(C)(C)C` it was 130 to 132 °C; in that of `C#Cc1ccc(C(=O)OC)nc1`, 40 to 45 °C; in that of `O=S(=O)(Cc1ccccc1)N(c1ncc(-c2ccccc2)nc1Cc1ccccc1)S(=O)(=O)Cc1ccccc1`, 71.5 to 74.5 °C.
For `CNc1ncnc2c1ncn2/C=C/c1cc(NC(=O)c2cccc(C(F)(F)F)c2)ccc1C`, the melting point came out at 201 °C.
To `CC(=O)NC(=O)CSC(C)=O` belongs 140 to 142 °C; to `COC(=O)c1ccc2oc(-c3ccc(C(F)(F)F)cc3)cc2c1`, 180 °C.
Compound `Cc1ccc(-c2nn(-c3ccccc3)c(N)c2C#N)cc1` gave a melting point of 186 to 188 °C.
In the case of `OCc1c(C2CC2)nn2ccc3c(c12)CCO3` it was 139 to 140 °C; in that of `COc1ccc(Nc2nc(Cl)nc(NCCCO)n2)cc1`, 155 to 159 °C; in that of `COCc1c(Cl)ccc(C(=O)c2cnoc2C2CC2)c1S(C)(=O)=O`, 83.6 to 84.2 °C.
To `CSc1nc(Cl)cc(P(C)(C)=O)n1` belongs 172 to 182 °C; to `CCCCCCCCCCNC(=O)[C@@H]1C[C@H]1c1ccc([N+](=O)[O-])cc1` (relative stereo), 127 to 129 °C.
In the case of `Cc1cc(-c2ccnn2-c2ccc(S(N)(=O)=O)c(F)c2C(F)F)ccc1-c1cscn1` it was 204 °C.
